System: SEM cells
Test: cell viability relative to DMSO control; higher = less cytotoxic
Settings: 48 h
Procedure, shortened: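 In 1536-well plates, 5 μl of leukemia cells were seeded per well: 500 cells/well for NOMO1 or SEM and 1000 cells/well for P12-Ichikawa. Each line had first been adapted for at least four passages in each medium. Library compounds in DMSO were pin-dosed at 11 threefold concentrations between 47 μM and 0.79 nM, and CellTiter-Glo One luminescence was read after 48 h at 37°C. Viability is a per-plate percentage relative to DMSO wells, with cell-free wells as background.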

[1] = HPLM + 10% dialyzed FBS, 0.000781 µM
[2] = HPLM + 10% dialyzed FBS, 0.00234 µM
[3] = HPLM + 10% dialyzed FBS, 0.00702 µM
[4] = HPLM + 10% dialyzed FBS, 0.0211 µM
[5] = HPLM + 10% dialyzed FBS, 0.0632 µM
[6] = HPLM + 10% dialyzed FBS, 0.19 µM
[7] = HPLM + 10% dialyzed FBS, 0.569 µM
[8] = HPLM + 10% dialyzed FBS, 1.71 µM
[9] = HPLM + 10% dialyzed FBS, 5.12 µM
[10] = HPLM + 10% dialyzed FBS, 15.4 µM
[11] = HPLM + 10% dialyzed FBS, 46.1 µM
[12] = RPMI 5 mM glucose + 10% FBS, 0.000781 µM
[13] = RPMI 5 mM glucose + 10% FBS, 0.00234 µM
[14] = RPMI 5 mM glucose + 10% FBS, 0.00702 µM
[15] = RPMI 5 mM glucose + 10% FBS, 0.0211 µM
[16] = RPMI 5 mM glucose + 10% FBS, 0.0632 µM
[17] = RPMI 5 mM glucose + 10% FBS, 0.19 µM
[18] = RPMI 5 mM glucose + 10% FBS, 0.569 µM
[19] = RPMI 5 mM glucose + 10% FBS, 1.71 µM
[20] = RPMI 5 mM glucose + 10% FBS, 5.12 µM
[21] = RPMI 5 mM glucose + 10% FBS, 15.4 µM
[22] = RPMI 5 mM glucose + 10% FBS, 46.1 µM
[23] = RPMI 5 mM glucose + 10% dialyzed FBS, 0.000781 µM
[24] = RPMI 5 mM glucose + 10% dialyzed FBS, 0.00234 µM
[25] = RPMI 5 mM glucose + 10% dialyzed FBS, 0.00702 µM
[26] = RPMI 5 mM glucose + 10% dialyzed FBS, 0.0211 µM
[27] = RPMI 5 mM glucose + 10% dialyzed FBS, 0.0632 µM
[28] = RPMI 5 mM glucose + 10% dialyzed FBS, 0.19 µM
[29] = RPMI 5 mM glucose + 10% dialyzed FBS, 0.569 µM
[30] = RPMI 5 mM glucose + 10% dialyzed FBS, 1.71 µM
[31] = RPMI 5 mM glucose + 10% dialyzed FBS, 5.12 µM
[32] = RPMI 5 mM glucose + 10% dialyzed FBS, 15.4 µM
[33] = RPMI 5 mM glucose + 10% dialyzed FBS, 46.1 µM

Row | SMILES | cell viability [1] [%] | cell viability [2] [%] | cell viability [3] [%] | cell viability [4] [%] | cell viability [5] [%] | cell viability [6] [%] | cell viability [7] [%] | cell viability [8] [%] | cell viability [9] [%] | cell viability [10] [%] | cell viability [11] [%] | cell viability [12] [%] | cell viability [13] [%] | cell viability [14] [%] | cell viability [15] [%] | cell viability [16] [%] | cell viability [17] [%] | cell viability [18] [%] | cell viability [19] [%] | cell viability [20] [%] | cell viability [21] [%] | cell viability [22] [%] | cell viability [23] [%] | cell viability [24] [%] | cell viability [25] [%] | cell viability [26] [%] | cell viability [27] [%] | cell viability [28] [%] | cell viability [29] [%] | cell viability [30] [%] | cell viability [31] [%] | cell viability [32] [%] | cell viability [33] [%]
1 | C[C@@H]1CC[C@@]2(CC[C@]3(C)\C(=C/C[C@@H]4[C@@]5(C)CC[C@H](O)C(C)(C)[C@@H]5CC[C@@]34C)[C@@H]2[C@H]1C)C(O)=O | 85.6 | 109 | 111 | 110 | 112 | 116 | 123 | 122 | 108 | 117 | 121 | 105 | 101 | 108 | 96.2 | 113 | 123 | 109 | 99.2 | 102 | 114 | 61.6 | 107 | 116 | 114 | 111 | 112 | 118 | 118 | 136 | 129 | 118 | 110
2 | CN(CCOc1ccc(CC2SC(=O)NC2=O)cc1)c1ccccn1 (stereo unspecified) | 116 | 117 | 121 | 106 | 113 | 123 | 117 | 115 | 124 | 121 | 116 | 76.7 | 94.7 | 85.4 | 102 | 84.2 | 81.9 | 90.5 | 95.1 | 85.7 | 97.3 | 104 | 107 | 119 | 113 | 117 | 113 | 107 | 112 | 106 | 121 | 114 | 122
3 | C[C@]12CCC3c4ccc(O)cc4CCC3C1CCC2=O (stereo partly specified) | 70.1 | 81.6 | 88.8 | 84.5 | 91.4 | 73.6 | 62.2 | 77.8 | 71.7 | 42.2 | 58.9 | 94 | 92.3 | 96.3 | 104 | 88.9 | 106 | 82 | 80.7 | 81.2 | 64.6 | 85 | 103 | 95.4 | 98.4 | 103 | 116 | 99.6 | 80.7 | 82.8 | 93.2 | 35.6 | 71.4
4 | CCC(C)CCCCC(=O)N[C@@H](CCN)C(=O)NC(C(=O)N[C@H](CCN)C(=O)N[C@@H]1CCNC(=O)C([C@@H](C)O)NC(=O)[C@@H](CCN)NC(=O)[C@@H](CCN)NC(=O)[C@@H](CC(C)C)NC(=O)[C@H](Cc2ccccc2)NC(=O)[C@H](CCN)NC1=O)[C@@H](C)O (stereo partly specified) | 81.6 | 85.8 | 94 | 94.3 | 100 | 92.9 | 76.5 | 112 | 109 | 110 | 101 | 104 | 113 | 109 | 109 | 107 | 110 | 90.1 | 108 | 111 | 118 | 108 | 87.1 | 90.9 | 93.2 | 86.1 | 107 | 111 | 49.8 | 103 | 105 | 102 | 118
5 | O=C(O)c1cc(O)c2c(c1)C(=O)c1cccc(O)c1C2=O | 112 | 113 | 103 | 108 | 110 | 116 | 89.7 | 111 | 96.8 | 92.9 | 91.9 | 105 | 108 | 105 | 106 | 104 | 120 | 108 | 111 | 97.9 | 92.9 | 84.4 | 119 | 116 | 108 | 117 | 118 | 105 | 111 | 113 | 116 | 96.6 | 84.9
6 | CN(C)c1nc(Cc2ccc(NC(=O)c3ccc(C(F)(F)F)cc3)cc2)nc(N(C)C)c1CC(=O)O | 104 | 107 | 106 | 100 | 116 | 100 | 123 | 112 | 125 | 116 | 83.4 | 113 | 99.4 | 101 | 93.7 | 111 | 82.8 | 118 | 93.4 | 110 | 100 | 74.7 | 99.1 | 118 | 102 | 108 | 121 | 117 | 113 | 115 | 109 | 105 | 90
7 | O=C(O)c1ccc(O)c2ncc(N3CCOCC3)cc12 | 101 | 117 | 128 | 110 | 103 | 102 | 116 | 99.8 | 73.5 | 99.2 | 11.4 | 106 | 109 | 109 | 115 | 112 | 94.1 | 106 | 99.3 | 65.9 | 84 | 7.59 | 94.8 | 98.4 | 96 | 99.6 | 95 | 86.2 | 99 | 87.4 | 46.4 | 68.9 | 7.27

Source: the supplement of paper PMC11451515
